From patent publication US20240158392A1 (Janssen Biotech, Inc., priority 2021, published 2024) come the findings set out here.

A word on the IC50: it is the concentration at which inhibition is half-maximal.

Chain of SIK2 (Q9H0K1 whole entry, species assumed): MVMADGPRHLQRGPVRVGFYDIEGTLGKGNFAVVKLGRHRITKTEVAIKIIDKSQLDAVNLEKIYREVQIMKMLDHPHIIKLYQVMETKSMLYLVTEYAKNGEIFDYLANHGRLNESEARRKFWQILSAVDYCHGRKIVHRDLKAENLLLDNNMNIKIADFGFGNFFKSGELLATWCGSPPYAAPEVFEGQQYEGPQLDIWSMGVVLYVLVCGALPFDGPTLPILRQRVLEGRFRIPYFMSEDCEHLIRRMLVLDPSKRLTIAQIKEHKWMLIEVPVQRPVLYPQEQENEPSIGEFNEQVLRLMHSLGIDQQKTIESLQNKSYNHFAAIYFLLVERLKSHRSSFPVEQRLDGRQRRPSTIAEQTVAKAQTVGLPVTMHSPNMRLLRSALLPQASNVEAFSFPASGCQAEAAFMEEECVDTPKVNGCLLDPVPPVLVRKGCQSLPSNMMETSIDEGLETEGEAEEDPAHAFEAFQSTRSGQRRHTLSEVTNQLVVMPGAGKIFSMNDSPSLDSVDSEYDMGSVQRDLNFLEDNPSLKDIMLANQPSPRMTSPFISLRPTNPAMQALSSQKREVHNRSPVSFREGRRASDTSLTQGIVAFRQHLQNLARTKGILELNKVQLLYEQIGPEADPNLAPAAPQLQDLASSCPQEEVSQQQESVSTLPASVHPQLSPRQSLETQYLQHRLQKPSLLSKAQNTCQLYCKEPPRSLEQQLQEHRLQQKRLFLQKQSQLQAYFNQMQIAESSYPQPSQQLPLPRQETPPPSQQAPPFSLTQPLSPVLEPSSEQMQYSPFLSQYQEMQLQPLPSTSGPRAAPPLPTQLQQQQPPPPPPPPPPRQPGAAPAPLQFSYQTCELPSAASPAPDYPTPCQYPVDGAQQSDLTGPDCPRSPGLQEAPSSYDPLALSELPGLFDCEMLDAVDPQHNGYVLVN

The first experiment concerns the target SIK2 (Homo sapiens, UniProt Q9H0K1). Briefly: SIK2 Enzymatic Assay High Version 2 (High ATP). Format: biochemical.
Conditions: not given
The gist of the method: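 At room temperature, enzyme (6 nM, 2× final) was preincubated with compound for 30 min, then 6 mM ATP and 400 μM HDAC5tide (both 2× final) were added for 2 h. ADP formed was measured by ADP-Glo Max (2 h reagent, 1 h detection) using luminescence.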
Regarding `O=C(Nc1cc2cc(-c3cc(C(F)F)ccc3O[C@H]3C[C@H]4COC[C@@H](C3)N4)ccn2n1)C1CC1` [Example 481, N-[5-[5-(difluoromethyl)-2-[[(1R,5S)-3-oxa-9-azabicyclo[3.3.1]nonan-7-yl]oxy]phenyl]pyrazolo[1,5-a]pyridin-2-yl]cyclopropanecarboxamide], the IC50 was less than 0.000847 µM.
`Cc1cc(-c2ccn3nc(Nc4ccn(C)n4)cc3c2)c(O[C@H]2C[C@H]3COC[C@@H](C2)N3C)cn1` [Example 423, 5-[2-methyl-5-[[(1S,5R,7s)-9-methyl-3-oxa-9-azabicyclo[3.3.1]nonan-7-yl]oxy]-4-pyridyl]-N-(1-methylpyrazol-3-yl)pyrazolo[1,5-a]pyridin-2-amine] returned an IC50 of 0.0103 µM.
In turn, `Cc1cc(-c2ccn3nc(Nc4ccc(C5CC5)nn4)cc3c2)c(O[C@@H]2[C@@H]3CO[C@H]2CN3)cn1` [Example 525, N-(6-cyclopropylpyridazin-3-yl)-5-[2-methyl-5-[[(1S,4S,7R)-2-oxa-5-azabicyclo[2.2.1]heptan-7-yl]oxy]-4-pyridyl]pyrazolo[1,5-a]pyridin-2-amine] showed a half-maximal inhibitory concentration (IC50) of 0.0594 µM.
Consider `Cc1cc(-c2ccn3nc(NC(=O)C4CC4)cc3c2)c(OC[C@H]2N(C)CC2(C)C)cn1` [Example 473, N-[5-[2-methyl-5-[[(2S)-1,3,3-trimethylazetidin-2-yl]methoxy]-4-pyridyl]pyrazolo[1,5-a]pyridin-2-yl]cyclopropanecarboxamide], for which the IC50 was found to be 0.0182 µM.
Still for that read-out and setting: the value for `Cc1cc(-c2ccn3nc(Nc4ccc(F)cn4)cc3c2)c(O[C@H]2C[C@H]3COC[C@@H](C2)N3C)cn1` [Example 126] was less than 0.000847 µM; that for `Cc1cc(-c2ccn3nc(Nc4cn(C)nc4F)cc3c2)c(O[C@H]2C[C@H]3COC[C@@H](C2)N3C)cn1` [Example 119, N-(3-fluoro-1-methyl-1H-pyrazol-4-yl)-5-(2-methyl-5-(((1R,5S,7s)-9-methyl-3-oxa-9-azabicyclo[3.3.1]nonan-7-yl)oxy)pyridin-4-yl)pyrazolo[1,5-a]pyridin-2-amine] was 0.00127 µM.
Same read-out and setting: next, `Cc1cc(-c2ccn3nc(Nc4ccc(C(=O)NCC(C)(C)O)cn4)cc3c2)c(O[C@H]2C[C@H]3COC[C@@H](C2)N3)cn1` [Example 371, N-(2-hydroxy-2-methyl-propyl)-6-[[5-[2-methyl-5-[[(1S,5R,7s)-3-oxa-9-azabicyclo[3.3.1]nonan-7-yl]oxy]-4-pyridyl]pyrazolo[1,5-a]pyridin-2-yl]amino]pyridine-3-carboxamide]: less than 0.000847 µM; `Cc1cc(-c2ccn3nc(Nc4cc(C)nc(C)n4)cc3c2)c(OC[C@@H]2CN(C)C(=O)N2)cn1` [Example 365, (4S)-4-[[4-[2-[(2,6-dimethylpyrimidin-4-yl)amino]pyrazolo[1,5-a]pyridin-5-yl]-6-methyl-3-pyridyl]oxymethyl]-1-methyl-imidazolidin-2-one]: less than 0.000847 µM.

The experiment is the same for the next values; noted with them: enzyme 6 nM, 6 mM ATP and 400 μM HDAC5tide (each 2× final concentration); 30 minutes pre-incubation, 2 hours; ADP-Glo Max luminescence; read-out: SIK2 high ATP IC50 (μM) (Test Example 2).
Regarding `CC#Cc1cc(-c2ccn3nc(Nc4ccn(C)n4)cc3c2)c(OC[C@H]2OCC[C@@H]2O)cn1` [Example 301, (2R,3S)-2-[[4-[2-[(1-methylpyrazol-3-yl)amino]pyrazolo[1,5-a]pyridin-5-yl]-6-prop-1-ynyl-3-pyridyl]oxymethyl]tetrahydrofuran-3-ol], the IC50 came to 0.00773 µM.
For `COC(=O)c1ccc(Nc2cc3cc(-c4cc(C)ncc4OCC(C)(C)O)ccn3n2)cc1OC` [Example 642, methyl 4-[[5-[5-(2-hydroxy-2-methyl-propoxy)-2-methyl-4-pyridyl]pyrazolo[1,5-a]pyridin-2-yl]amino]-2-methoxy-benzoate], the IC50 was determined as 0.00171 µM.
Consider `COc1cc(Nc2cc3cc(-c4cc(C)ncc4OCC(C)(C)C#N)ccn3n2)cc(OC)c1C(=O)NC1CC1` [Example 268, 4-[[5-[5-(2-cyano-2-methyl-propoxy)-2-methyl-4-pyridyl]pyrazolo[1,5-a]pyridin-2-yl]amino]-N-cyclopropyl-2,6-dimethoxy-benzamide], for which the IC50 came out at 0.00138 µM.
The same measure, in the same setting: next, `Cc1cc(-c2ccn3nc(Nc4cc(C)nc(C)n4)cc3c2)c(O[C@@H]2CNC[C@@H]2F)cn1` [Example 278, N-(2,6-dimethylpyrimidin-4-yl)-5-[5-[(3R,4S)-4-fluoropyrrolidin-3-yl]oxy-2-methyl-4-pyridyl]pyrazolo[1,5-a]pyridin-2-amine]: 0.0025 µM.
The same measure, in the same setting: the value for `Cc1cc(-c2ccn3nc(Nc4cc(C)nc(C)n4)cc3c2)c(OC[C@H]2CC3(CCC3)CO2)cn1` (single isomer, unassigned) [Example 607, (*R)—N-(2,6-dimethylpyrimidin-4-yl)-5-[2-methyl-5-(7-oxaspiro[3.4]octan-6-ylmethoxy)-4-pyridyl]pyrazolo[1,5-a]pyridin-2-amine] was 0.1 µM; that for `Cc1cc(-c2ccn3nc(Nc4ccc(C)nn4)cc3c2)c(OC[C@@]23CN[C@@H](CO2)C3)cn1` [Example 254, 5-[2-methyl-5-[[(1R,4R)-5-oxa-2-azabicyclo[2.2.1]heptan-4-yl]methoxy]-4-pyridyl]-N-(6-methylpyridazin-3-yl)pyrazolo[1,5-a]pyridin-2-amine] was 0.00637 µM.
The same measure, in the same setting: the value for `Cc1nccc(Nc2cc3cc(-c4cc(OC(F)F)ncc4OCC(C)(C)C#N)ccn3n2)n1` [Example 717, 3-[[6-(difluoromethoxy)-4-[2-[(2-methylpyrimidin-4-yl)amino]pyrazolo[1,5-a]pyridin-5-yl]-3-pyridyl]oxy]-2,2-dimethyl-propanenitrile] was 0.00142 µM; that for `Cc1cc(-c2ccn3nc(Nc4cc(C)nc(C)n4)cc3c2)c(OC2CC(NS(C)(=O)=O)C2)cn1` (stereo not shown) [Example 579, N-[3-[[4-[2-[(2,6-dimethylpyrimidin-4-yl)amino]pyrazolo[1,5-a]pyridin-5-yl]-6-methyl-3-pyridyl]oxy]cyclobutyl]methanesulfonamide] was 0.0666 µM.
Turning to `Cc1cc(-c2ccn3nc(NC(=O)C4CC4)cc3c2)c(O[C@H]2CC[C@](C)(O)CC2)cn1` [Example 151, trans-N-(5-(5-(((1r,4r)-4-hydroxy-4-methylcyclohexyl)oxy)-2-methylpyridin-4-yl)pyrazolo[1,5-a]pyridin-2-yl)cyclopropanecarboxamide], the IC50 came to 0.00378 µM.
Regarding `Cc1cc(-c2ccn3nc(Nc4ccncn4)cc3c2)c(OC[C@@H]2CNCCO2)cn1` [Example 132, 5-[2-methyl-5-[[(2S)-morpholin-2-yl]methoxy]-4-pyridyl]-N-pyrimidin-4-yl-pyrazolo[1,5-a]pyridin-2-amine], the IC50 was 0.00951 µM.
Turning to `Cc1cc(Nc2cc3cc(-c4cc(C)ncc4OCC(C)(C)O)ccn3n2)nc(C(=O)NC2CC2)c1` [Example 638, N-cyclopropyl-6-[[5-[5-(2-hydroxy-2-methyl-propoxy)-2-methyl-4-pyridyl]pyrazolo[1,5-a]pyridin-2-yl]amino]-4-methyl-pyridine-2-carboxamide], the IC50 is 0.149 µM.
On the same count and under the same terms, next, `Cc1cc(-c2ccn3nc(Nc4cc(C)nc(C)n4)cc3c2)c(O[C@H]2CC[C@H](O)CC2)cn1` [Example 198, trans-4-[[4-[2-[(2,6-dimethylpyrimidin-4-yl)amino]pyrazolo[1,5-a]pyridin-5-yl]-6-methyl-3-pyridyl]oxy]cyclohexanol]: 0.00877 µM; `Cc1cc(-c2ccn3nc(NC(=O)C4CC4)cc3c2)c(OC[C@H](N)c2ccccc2)cn1` (single isomer, unassigned) [Example 465]: 0.0129 µM; `Cc1cc(-c2ccn3nc(Nc4ccc(C5CC5)nn4)cc3c2)c(OC[C@@]23CN[C@@H](CO2)C3)cn1` [Example 255, N-(6-cyclopropylpyridazin-3-yl)-5-[2-methyl-5-[[(1R,4R)-5-oxa-2-azabicyclo[2.2.1]heptan-4-yl]methoxy]-4-pyridyl]pyrazolo[1,5-a]pyridin-2-amine]: 0.00704 µM.
The same measure, in the same setting: next, `Cc1cc(-c2ccn3nc(Nc4cc(C)nc(C)n4)cc3c2)c(O[C@H]2C[C@H](N)C2)cn1` [Example 545, 5-(5-((1r,3r)-3-aminocyclobutoxy)-2-methylpyridin-4-yl)-N-(2,6-dimethylpyrimidin-4-yl)pyrazolo[1,5-a]pyridin-2-amine]: 0.0134 µM; `Cn1cc(Nc2cc3cc(-c4cc(OC(F)F)ncc4OCC(C)(C)C#N)ccn3n2)cn1` [Example 692, 3-[[6-(difluoromethoxy)-4-[2-[(1-methylpyrazol-4-yl)amino]pyrazolo[1,5-a]pyridin-5-yl]-3-pyridyl]oxy]-2,2-dimethyl-propanenitrile]: 0.00228 µM.
The same measure, in the same setting: the value for `Cc1cc(-c2ccn3nc(Nc4cc(C)nc(C)n4)cc3c2)c(OC[C@H]2COC(C)(C)C2)cn1` (single isomer, unassigned) [Example 540, (*S)—N-(2,6-dimethylpyrimidin-4-yl)-5-[5-[(5,5-dimethyltetrahydrofuran-3-yl)methoxy]-2-methyl-4-pyridyl]pyrazolo[1,5-a]pyridin-2-amine] was 0.0585 µM; that for `Cc1ncc(Nc2cc3cc(-c4cc(OC(F)F)ncc4OCC(C)(C)C#N)ccn3n2)cn1` [Example 641, 3-[[6-(difluoromethoxy)-4-[2-[(2-methylpyrimidin-5-yl)amino]pyrazolo[1,5-a]pyridin-5-yl]-3-pyridyl]oxy]-2,2-dimethyl-propanenitrile] was 0.111 µM; that for `Cc1cc(-c2ccn3nc(Nc4cc(C)nc(N5CCCC5)n4)cc3c2)c(OCC(C)(C)O)cn1` [Example 285, 2-methyl-1-[[6-methyl-4-[2-[(6-methyl-2-pyrrolidin-1-yl-pyrimidin-4-yl)amino]pyrazolo[1,5-a]pyridin-5-yl]-3-pyridyl]oxy]propan-2-ol] was 0.0109 µM.
With `Cc1cc(-c2ccn3nc(Nc4ccc(C(F)(F)F)cn4)cc3c2)c(OC[C@@H]2CNCCO2)cn1` [Example 424, 5-[2-methyl-5-[[(2S)-morpholin-2-yl]methoxy]-4-pyridyl]-N-[5-(trifluoromethyl)-2-pyridyl]pyrazolo[1,5-a]pyridin-2-amine], the IC50 is 0.00766 µM.
